Entries after “also recorded” stand apart in the source; their conditions may differ.
Tested on: S. aureus ATCC 13709
Assay: Prophylactic model of bone infection in rats
Type: in vivo, rat
Settings: for prophylactic effect in rat model of bone infection, in words: Table 4 and FIGS. 6-8, doses as in Table 4
Method in brief: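 Female CD rats (n=5/group) given intra-tibial 5% sodium morrhuate then S. aureus (ca. 5×10^5 CFU/rat), hole sealed with dental cement. Prodrugs given as single IV bolus in 0.9% saline at various times before infection; parent at molar equivalent dose. Tibiae harvested 24 h postinfection; Log CFU/g bone, detection limit 2 Log CFU/g.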

| SMILES | bacterial titer compared with untreated group (15.8 mg/kg IV 5, 10, 15 and 20 days before infection (FIG. 6)) | Measured bacterial titer (Log CFU/g of bone) Test compound (15.8 mg/kg IV, 2 days prior to infection, 24 h postinfection) | bacterial titer compared with untreated group (32 mg/kg IV 7, 14, 21 and 28 days prior to infection (FIG. 7)) | prophylactic effect in rat model of bone infection, in words | bacterial titer compared with untreated group (17.3 mg/Kg IV 48 h prior to infection (FIG. 8)) | Measured bacterial titer (Log CFU/g of bone) Test compound (20 mg/kg IV, 3 days prior to infection) |
| --- | --- | --- | --- | --- | --- | --- |
| COc1c(N2C[C@@H]3CCCN[C@@H]3C2)c(F)cc2c(=O)c(C(=O)OCC(=O)NC(P(=O)(O)O)P(=O)(O)O)cn(C3CC3)c12 [Compound 52, (1,1-Bisphosphonomethylcarbamoyl)methyl 1-cyclopropyl-6-fluoro-1,4-dihydro-7-((4aS,7aS)-octahydropyrrolo[3,4-b]pyridin-6-yl)-8-methoxy-4-oxoquinoline-3-carboxylate] | significant (p<0.05) decrease in bacterial titer | 2.29 ± 0.30 Log CFU/g of bone | significant decrease in bacterial titer | efficient prophylactic effect |  |  |
| COc1c(N2CCNC(C)C2)c(F)cc2c(=O)c(C(=O)OCC(=O)NC(P(=O)(O)O)P(=O)(O)O)cn(C3CC3)c12 (stereo not shown) [Compound 54, (1,1-Bisphosphonomethylcarbamoyl)methyl 7-(3-methylpiperazin-1-yl)-1-cyclopropyl-6-fluoro-1,4-dihydro-8-methoxy-4-oxoquinoline-3-carboxylate] |  |  |  | efficient prophylactic effect | significant (p-value ≦0.0002) decrease in bacterial titer; also recorded: nearly sterile bone | 2.96 ± 0.69 Log CFU/g of bone |

Source: patent publication US20080287396A1, “Phosphonated Fluoroquinolones, Antibacterial Analogs Thereof, and Methods for the Prevention and Treatment of Bone and Joint Infections” (TARGANTA THERAPEUTICA INC., priority 2005, published 2008)
